We go through eleven molecules from ChEMBL document CHEMBL4138131, “Design, synthesis, kinetic mechanism and molecular docking studies of novel 1-pentanoyl-3-arylthioureas as inhibitors of mushroom tyrosinase and free radical scavengers” (Eur J Med Chem, 2017).

Activity calls are given as the source filed them. The rule behind the calls is not given here.

Series [1] is described as follows: Antioxidant activity assessed as DPPH radical scavenging activity at 100 ug/ml relative to control. The class given is functional.
In series [2] the target is T1, Tyrosinase (Agaricus bisporus, UniProt O42713).
T1 sequence (O42713 whole entry): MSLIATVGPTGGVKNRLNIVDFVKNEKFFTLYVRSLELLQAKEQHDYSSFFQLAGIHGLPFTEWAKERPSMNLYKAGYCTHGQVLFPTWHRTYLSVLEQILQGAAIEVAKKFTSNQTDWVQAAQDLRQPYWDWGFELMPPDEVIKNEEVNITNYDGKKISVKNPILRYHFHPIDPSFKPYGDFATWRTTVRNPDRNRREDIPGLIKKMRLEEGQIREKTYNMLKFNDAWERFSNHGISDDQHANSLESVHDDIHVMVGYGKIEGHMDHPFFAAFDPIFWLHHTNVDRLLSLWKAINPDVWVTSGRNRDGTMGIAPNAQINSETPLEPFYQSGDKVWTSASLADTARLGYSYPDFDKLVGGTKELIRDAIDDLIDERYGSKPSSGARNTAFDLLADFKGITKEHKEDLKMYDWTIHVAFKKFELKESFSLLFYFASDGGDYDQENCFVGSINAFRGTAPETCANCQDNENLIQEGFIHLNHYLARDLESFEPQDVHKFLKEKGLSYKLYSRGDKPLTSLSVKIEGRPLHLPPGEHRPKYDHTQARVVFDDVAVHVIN
Put plainly: Inhibition of mushroom tyrosinase using L-DOPA as substrate preincubated for 10 mins followed by substrate addition measured for 20 mins.

Series [3] has as its target T2, Tyrosinase (Agaricus bisporus) (UniProt O42713).
T2 sequence (whole entry): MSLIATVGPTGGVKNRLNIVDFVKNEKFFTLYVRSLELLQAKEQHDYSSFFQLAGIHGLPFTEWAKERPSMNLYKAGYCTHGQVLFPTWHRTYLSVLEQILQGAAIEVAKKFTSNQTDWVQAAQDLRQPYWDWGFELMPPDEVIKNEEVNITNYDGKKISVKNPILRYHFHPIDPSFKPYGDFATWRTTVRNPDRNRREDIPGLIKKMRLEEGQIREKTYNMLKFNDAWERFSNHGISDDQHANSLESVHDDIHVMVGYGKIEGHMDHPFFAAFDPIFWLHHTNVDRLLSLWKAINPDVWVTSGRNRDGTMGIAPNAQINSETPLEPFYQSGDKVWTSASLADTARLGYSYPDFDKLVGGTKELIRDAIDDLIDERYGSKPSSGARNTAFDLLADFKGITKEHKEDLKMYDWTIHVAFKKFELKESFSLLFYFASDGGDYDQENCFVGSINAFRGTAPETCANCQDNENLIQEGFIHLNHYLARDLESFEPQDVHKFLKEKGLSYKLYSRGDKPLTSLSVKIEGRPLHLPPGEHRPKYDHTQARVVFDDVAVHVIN
Put plainly: Non-competitive inhibition of mushroom tyrosinase assessed as 1/Vmax at 0.542 uM using L-DOPA as substrate preincubated for 10 mins followed by substrate addition measured up to 5 mins by Line-weaver Burk plot analysis.

In series [4] the target is T2, Tyrosinase (Agaricus bisporus). Put plainly: Non-competitive inhibition of mushroom tyrosinase assessed as 1/Vmax at 4.336 uM using L-DOPA as substrate preincubated for 10 mins followed by substrate addition measured up to 5 mins by Line-weaver Burk plot analysis.
Series [5] shares this target. The series is described as follows: Non-competitive inhibition of mushroom tyrosinase assessed as 1/Vmax at 0.271 uM using L-DOPA as substrate preincubated for 10 mins followed by substrate addition measured up to 5 mins by Line-weaver Burk plot analysis.
For series [6] the target is unchanged. Put plainly: Non-competitive inhibition of mushroom tyrosinase assessed as 1/Vmax at 1.084 uM using L-DOPA as substrate preincubated for 10 mins followed by substrate addition measured up to 5 mins by Line-weaver Burk plot analysis.
For series [7] the target is unchanged. The series is described as follows: Non-competitive inhibition of mushroom tyrosinase at 0.271 to 4.336 uM using L-DOPA as substrate preincubated for 10 mins followed by substrate addition measured up to 5 mins by Line-weaver Burk plot analysis.
Series [8] addresses T1, Tyrosinase. Put plainly: Non-competitive inhibition of mushroom tyrosinase using L-DOPA as substrate preincubated for 10 mins followed by substrate addition measured up to 5 mins by Dixon plot analysis.
In series [9] the target is T2, Tyrosinase (Agaricus bisporus). The series is described as follows: Potency index ratio of kojic acid IC50 to compound IC50 for inhibition of mushroom tyrosinase.
For series [10] the target is unchanged. The series is described as follows: Irreversible inhibition of mushroom tyrosinase at 0.271 to 4.336 uM using L-DOPA as substrate preincubated for 10 mins followed by substrate addition measured up to 5 mins by Line-weaver Burk plot analysis.
Series [11] has the same target. Put plainly: Non-competitive inhibition of mushroom tyrosinase assessed as 1/Vmax at 2.18 uM using L-DOPA as substrate preincubated for 10 mins followed by substrate addition measured up to 5 mins by Line-weaver Burk plot analysis.
Compound in series [12]: CCCCC(=O)NC(=S)Nc1ccc(OC)cc1
The series is described as follows: Non-competitive inhibition of mushroom tyrosinase assessed as substrate Km at 4.336 uM using L-DOPA as substrate preincubated for 10 mins followed by substrate addition measured up to 5 mins by Line-weaver Burk plot analysis. The conditions noted are these: Agaricus bisporus.

Compound in series [13]: CCCCC(=O)NC(=S)Nc1ccc(OC)cc1
Put plainly: Non-competitive inhibition of mushroom tyrosinase assessed as substrate Km at 1.084 uM using L-DOPA as substrate preincubated for 10 mins followed by substrate addition measured up to 5 mins by Line-weaver Burk plot analysis. The conditions noted are these: Agaricus bisporus.

Compound in series [14]: CCCCC(=O)NC(=S)Nc1ccc(OC)cc1
The series is described as follows: Non-competitive inhibition of mushroom tyrosinase assessed as substrate Km at 0.271 uM using L-DOPA as substrate preincubated for 10 mins followed by substrate addition measured up to 5 mins by Line-weaver Burk plot analysis. The conditions noted are these: Agaricus bisporus.

Compound in series [15]: CCCCC(=O)NC(=S)Nc1ccc(OC)cc1
Put plainly: Non-competitive inhibition of mushroom tyrosinase assessed as substrate Km at 2.18 uM using L-DOPA as substrate preincubated for 10 mins followed by substrate addition measured up to 5 mins by Line-weaver Burk plot analysis. The conditions noted are these: Agaricus bisporus.

Compound in series [16]: CCCCC(=O)NC(=S)Nc1ccc(OC)cc1
Put plainly: Non-competitive inhibition of mushroom tyrosinase assessed as substrate Km at 0.542 uM using L-DOPA as substrate preincubated for 10 mins followed by substrate addition measured up to 5 mins by Line-weaver Burk plot analysis. The conditions noted are these: Agaricus bisporus.

For `CCCCC(=O)NC(=S)Nc1c(Br)cc(F)cc1Br`, the result in series [1] was inactive. This molecule also registered an IC50 against Tyrosinase [2] of 19.5 µM.

Regarding `CCCCC(=O)NC(=S)Nc1ccc([N+](=O)[O-])cc1[N+](=O)[O-]`, in series [1], the outcome was inactive. At Tyrosinase [2], this molecule came in with an IC50 of 10.1 µM.

On to `CCCCC(=O)NC(=S)Nc1ccc(Br)cc1`, for which, in [1], the outcome was inactive. For the same molecule, on Tyrosinase [2], inhibition was half-maximal at 3.37 µM (IC50).

Consider `CCCCC(=O)NC(=S)Nc1ccc(Br)cc1F`, for which the outcome in series [1] was inactive. This molecule came in with an IC50 on Tyrosinase [2] of 6.46 µM.

For the molecule `CCCCC(=O)NC(=S)Nc1cccc([N+](=O)[O-])c1`, the outcome in series [1] was inactive. Moreover, on Tyrosinase [2], half-maximal inhibition (IC50) required 16.6 µM.

Regarding `CCCCC(=O)NC(=S)Nc1cccc(Cl)c1Cl`, in series [1], the result was inactive. At Tyrosinase [2], this molecule registered an IC50 of 7.75 µM.

For the molecule `CCCCC(=O)NC(=S)Nc1ccc(Cl)cc1`, the result in [1] was inactive. At Tyrosinase [2], half-maximal inhibition (IC50) required 2.32 µM.

As for `CCCCC(=O)NC(=S)Nc1ccc(OC)cc1`, the 1/Vmax was 52400 deltaA/s in [3]; 186000 deltaA/s in series [4]; 28600 deltaA/s in series [5]; 90500 deltaA/s in series [6]; 110000 deltaA/s in series [11]. The Activity in series [1] came out at 80%. In addition, the inhibition entry in series [7] and in [10] was “Active” throughout. This molecule yielded a Ki on Tyrosinase [8] of 1.1 µM. Further, the Ratio IC50 in series [9] is 15. At Tyrosinase [2], this molecule yielded an IC50 of 1.57 µM.

For the molecule `CCCCC(=O)NC(=S)Nc1c(C)cc(C)cc1C`, the result in [1] was inactive. This molecule gave an IC50 against Tyrosinase [2] of 19.7 µM.

For the molecule `CCCCC(=O)NC(=S)Nc1ccc([N+](=O)[O-])cc1`, in series [1], the result was inactive. Also, the IC50 at Tyrosinase [2] is 7.99 µM.

B1: Tyrosinase (Agaricus bisporus), O42713 (protein)
chain: MSLIATVGPTGGVKNRLNIVDFVKNEKFFTLYVRSLELLQAKEQHDYSSFFQLAGIHGLPFTEWAKERPSMNLYKAGYCTHGQVLFPTWHRTYLSVLEQILQGAAIEVAKKFTSNQTDWVQAAQDLRQPYWDWGFELMPPDEVIKNEEVNITNYDGKKISVKNPILRYHFHPIDPSFKPYGDFATWRTTVRNPDRNRREDIPGLIKKMRLEEGQIREKTYNMLKFNDAWERFSNHGISDDQHANSLESVHDDIHVMVGYGKIEGHMDHPFFAAFDPIFWLHHTNVDRLLSLWKAINPDVWVTSGRNRDGTMGIAPNAQINSETPLEPFYQSGDKVWTSASLADTARLGYSYPDFDKLVGGTKELIRDAIDDLIDERYGSKPSSGARNTAFDLLADFKGITKEHKEDLKMYDWTIHVAFKKFELKESFSLLFYFASDGGDYDQENCFVGSINAFRGTAPETCANCQDNENLIQEGFIHLNHYLARDLESFEPQDVHKFLKEKGLSYKLYSRGDKPLTSLSVKIEGRPLHLPPGEHRPKYDHTQARVVFDDVAVHVIN
For B1, the Km in [12], in [13], in series [14], in series [15] and in series [16] was 389 µM each time.
